Reference: patent US20060063759A1, “Tricyclic steroid hormone nuclear receptor modulators” (priority 2002, published 2006)

Legend:
human MR = molecular target: T1, human MR (Homo sapiens, UniProt P08235); assay: Mineralocorticoid Receptor Binding Assay ([3H]-aldosterone); conditions: [3H]-aldosterone binding, human MR expressed in Sf9 cells; read-out: MR Ki
T1 construct: The full length human MR gene is cloned from a human kidney or human brain cDNA library; His tag from the pAcHLT vector (own knowledge); made in house; host or cells: Sf9 insect cells (baculovirus, pAcHLT transfer vector)
T1 sequence (P08235 1-984): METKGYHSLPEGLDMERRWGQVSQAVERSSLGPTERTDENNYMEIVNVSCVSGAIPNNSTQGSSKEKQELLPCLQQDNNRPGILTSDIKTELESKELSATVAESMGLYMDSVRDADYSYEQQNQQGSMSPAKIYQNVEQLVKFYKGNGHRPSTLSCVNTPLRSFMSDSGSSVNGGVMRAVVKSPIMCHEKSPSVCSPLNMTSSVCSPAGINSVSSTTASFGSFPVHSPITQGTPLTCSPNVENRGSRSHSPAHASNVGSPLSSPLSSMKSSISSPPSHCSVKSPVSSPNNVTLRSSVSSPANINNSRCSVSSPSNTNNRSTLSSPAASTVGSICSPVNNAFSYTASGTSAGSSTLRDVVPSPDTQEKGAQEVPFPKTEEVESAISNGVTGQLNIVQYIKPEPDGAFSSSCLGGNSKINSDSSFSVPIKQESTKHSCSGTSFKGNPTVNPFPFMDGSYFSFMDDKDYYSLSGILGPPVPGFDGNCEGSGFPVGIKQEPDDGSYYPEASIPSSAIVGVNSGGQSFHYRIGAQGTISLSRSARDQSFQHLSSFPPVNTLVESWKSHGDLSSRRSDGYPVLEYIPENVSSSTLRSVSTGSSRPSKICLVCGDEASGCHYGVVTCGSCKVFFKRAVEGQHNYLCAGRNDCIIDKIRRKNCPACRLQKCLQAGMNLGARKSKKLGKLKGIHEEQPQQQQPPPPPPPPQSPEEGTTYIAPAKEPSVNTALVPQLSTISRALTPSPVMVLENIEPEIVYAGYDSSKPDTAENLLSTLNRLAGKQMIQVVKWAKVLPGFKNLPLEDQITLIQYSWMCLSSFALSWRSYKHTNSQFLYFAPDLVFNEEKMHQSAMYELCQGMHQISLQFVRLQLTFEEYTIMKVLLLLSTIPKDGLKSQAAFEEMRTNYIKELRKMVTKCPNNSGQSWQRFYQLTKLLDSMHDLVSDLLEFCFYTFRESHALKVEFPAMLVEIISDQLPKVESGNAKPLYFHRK
Summary of the method: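 Lysate supernatant of Sf9 cells expressing full-length human MR (20-25 μg protein) was incubated with 0.5 nM [3H]-aldosterone and test compound in molybdate/Tris/phosphate/glycerol buffer, pH 7.5, ~16 h at 4 °C. Bound ligand was filtered and counted by scintillation; IC50 is the concentration halving [3H]-aldosterone binding.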

glucocorticoid receptor = molecular target: T2, glucocorticoid receptor (Homo sapiens, UniProt P04150); assay: Glucocorticoid Receptor Binding Assay ([3H]-dexamethasone, A549 cell extract); conditions: [3H]-dexamethasone binding, read-out: GR Ki
T2 construct: containing 50-200 ug of A549 cell extract and 1.86 nM [^3H]-dexamethasone; host or cells: A549 human lung epithelial cells (sonicated cell extract)
T2 sequence (P04150 1-777): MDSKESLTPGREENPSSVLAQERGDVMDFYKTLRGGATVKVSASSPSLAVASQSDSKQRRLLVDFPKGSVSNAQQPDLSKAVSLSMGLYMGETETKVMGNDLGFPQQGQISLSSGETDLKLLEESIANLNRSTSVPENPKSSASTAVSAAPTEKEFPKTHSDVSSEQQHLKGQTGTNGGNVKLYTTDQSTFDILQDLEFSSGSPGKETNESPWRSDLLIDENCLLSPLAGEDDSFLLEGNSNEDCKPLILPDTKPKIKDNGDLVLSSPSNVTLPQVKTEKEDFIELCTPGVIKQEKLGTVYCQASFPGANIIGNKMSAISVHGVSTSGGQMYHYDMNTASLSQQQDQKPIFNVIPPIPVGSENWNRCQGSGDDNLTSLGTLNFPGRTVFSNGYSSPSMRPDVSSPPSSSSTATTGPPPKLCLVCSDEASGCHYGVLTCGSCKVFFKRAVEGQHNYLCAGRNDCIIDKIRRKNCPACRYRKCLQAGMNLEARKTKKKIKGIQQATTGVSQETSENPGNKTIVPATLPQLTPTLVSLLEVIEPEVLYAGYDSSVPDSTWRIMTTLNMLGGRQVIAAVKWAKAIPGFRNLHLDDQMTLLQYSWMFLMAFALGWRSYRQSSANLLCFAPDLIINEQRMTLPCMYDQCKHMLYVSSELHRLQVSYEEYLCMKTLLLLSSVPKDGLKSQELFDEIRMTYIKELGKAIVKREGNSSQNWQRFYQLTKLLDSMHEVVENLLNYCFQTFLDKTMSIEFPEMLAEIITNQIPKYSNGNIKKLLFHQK
Summary of the method: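 A549 cell extract (50–200 ug) incubated with 1.86 nM [3H]-dexamethasone and test compound for 16 h at 4 °C in Tris-HCl pH 7.2 buffer with glycerol and molybdate. Unbound radioligand removed by dextran-coated charcoal, then supernatant bound counts measured by scintillation.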

Structure (SMILES)	Ki (human MR) [nM]	melting point [°C]	Ki (glucocorticoid receptor) [nM]
CNS(=O)(=O)c1cccc(C=C2c3ccccc3CCc3ccccc32)c1 [Example 1, 3-(10,11-Dihydro-dibenzo[a,d]cyclohepten-5-ylidenemethyl)-N-methyl-benzenesulfonamide]	< 500	153.9	< 500
CNS(=O)(=O)c1cc(C)ccc1C=C1c2ccccc2CCc2ccccc21 [Example 2, 2-(10,11-Dihydro-dibenzo[a,d]cyclohepten-5-ylidenemethyl)-5,N-dimethyl-benzenesulfonamide]	< 500	174.9	< 500
CNS(=O)(=O)c1ccccc1C=C1c2ccccc2CCc2ccccc21 [Example 4, 2-(10,11-Dihydro-dibenzo[a,d]cyclohepten-5-ylidenemethyl)-N-methyl-benzenesulfonamide]	< 500	149	< 1000
CCCNS(=O)(=O)c1ccccc1C=C1c2ccccc2CCc2ccccc21 [Example 6, 2-(10,11-Dihydro-benzo[a,d]cyclohepten-5-ylidenemethyl)-N-propyl-benzenesulfonamide]	< 500	155.6	< 500
CNS(=O)(=O)c1ccc(C=C2c3ccccc3CCc3ccccc32)cc1 [Example 27, 4-(10,11-Dihydro-dibenzo[a,d]cyclohepten-5-ylidenemethyl)-N-methyl-benzenesulfonamide]	< 500	189.7	< 1000
Oc1ccc(C=C2c3ccccc3CCc3ccccc32)cc1 [Example 60, b-(10,11-Dihydro-dibenzo[a,d]cyclohepten-5-ylidenemethyl)-phenol]	< 500	56.9	< 10000
Oc1ccc(C=C2c3ccccc3CCc3ccccc32)cc1O [Example 62, 4-(10,11-Dihydro-dibenzo[a,d]cyclohepten-5-ylidenemethyl)-benzene-1,2-diol]	< 500	138	< 10000
Nc1cc(C=C2c3ccccc3CCc3ccccc32)ccc1O [Example 63, 2-Amino-4-(10,11-dihydro-dibenzo[a,d]cyclohepten-5-ylidenemethyl)-phenol]		158.8	
CS(=O)(=O)Nc1cc(C=C2c3ccccc3CCc3ccccc32)ccc1O [Example 64, N-[5-(10,11-Dihydro-dibenzo[a,d]cyclohepten-5-ylidenemethyl)-2-hydroxy-phenyl]-methanesulfonamide]	< 500	122.6	< 500
FC(F)Oc1cccc(C=C2c3ccccc3CCc3ccccc32)c1 [Example 65, 5-(3-Difluoromethoxy-benzylidene)-10,11-dihydro-5H-dibenzo[a,d]cycloheptene]	< 500	91.3	< 10000
FC(F)Oc1ccc(C=C2c3ccccc3CCc3ccccc32)cc1 [Example 67, 5-(4-Difluoromethoxy-benzylidene)-10,11-dihydro-5H-dibenzo[a,d]cycloheptene]		65.8	
O=Cc1ccc(C=C2c3ccccc3CCc3ccccc32)cc1 [Example 68, 4-(10,11-Dihydro-dibenzo[a,d]cyclohepten-5-ylidenemethyl)-benzaldehyde]	< 500	106.4	< 500
O=Cc1cccc(C=C2c3ccccc3CCc3ccccc32)c1 [Example 70, 3-(10,11-Dihydro-dibenzo[a,d]cyclohepten-5-ylidenemethyl)-benzaldehyde]	< 500	86.7	< 1000
FC(F)c1cccc(C=C2c3ccccc3CCc3ccccc32)c1 [Example 72, 5-(3-Difluoromethyl-benzylidene)-10,11-dihydro-5H-dibenzo[a,d]cycloheptene]	< 500	92.5	< 10000
CN(c1cccc(C=C2c3ccccc3CCc3ccccc32)c1)S(C)(=O)=O [Example 124, N-[3-(10,11-Dihydro-dibenzo[a,d]cyclohepten-5-ylidenemethyl)-phenyl]-N-methyl-methanesulfonamide]		124.2	
Cc1nc2c(o1)CCc1ccccc1/C2=C/c1cccc(NS(C)(=O)=O)c1 [Example 247, N-[3-(2-Methyl-9,10-dihydro-1-oxa-3-aza-benzo[f]azulen-4-ylidenemethyl)-phenyl]-methanesulfonamide]		184.6	

Continued, values first:

Ki (human MR) [nM]	melting point [°C]	Ki (glucocorticoid receptor) [nM]	Structure (SMILES)
< 500	129.3	< 10000	COc1ccccc1C=C1c2ccccc2CCc2ccccc21 [Example 31, 5-(2-Methoxy-benzylidene)-10,11-dihydro-5H-dibenzo-[a,d]cycloheptene]
< 500	83	< 1000	COc1cccc(C=C2c3ccccc3CCc3ccccc32)c1 [Example 32, 5-(3-Methoxy-benzylidene)-10,11-dibydro-5H-dibenzo-[a,d]cycloheptene]
< 500	130.6	< 500	COc1cccc(C=C2c3ccccc3CCc3ccccc32)c1OC [Example 35]
	81.1		FC(F)Oc1ccccc1C=C1c2ccccc2CCc2ccccc21 [Example 66, 5-(2-Difluoromethoxy-benzylidene)-10,11-dihydro-5H-dibenzo[a,d]cycloheptene]
< 500	198.9	< 500	O=Cc1ccccc1C=C1c2ccccc2CCc2ccccc21 [Example 69, 2-(10,11-Dihydro-dibenzo[a,d]cyclohepten-5-ylidenemethyl)-benzaldehyde]
< 500	13.3	< 500	FC(F)c1ccccc1C=C1c2ccccc2CCc2ccccc21 [Example 71, 5-(2-Difluoromethyl-benzylidene)-10,11-dihydro-5H-dibenzo[a,d]cycloheptene]
	62.7		COc1ccc(C=C2c3ccccc3CCc3ccccc32)cc1N [Example 89, 5-(10,11-Dihydro-dibenzo[a,d]cyclohepten-5-ylidenemethyl)-2-methoxy-phenylamine]
	192.1		COc1ccc(C=C2c3ccccc3CCc3ccccc32)cc1NS(C)(=O)=O [Example 97, N-[5-(10,11-Dihydro-dibenzo[a,d]cyclohepten-5-ylidenemethyl)-2-methoxy-phenyl]-methanesulfonamide]
	189.7		CC(=O)Nc1ccccc1C=C1c2ccccc2CCc2ccccc21 [Example 115, N-[2-(10,11-Dihydro-dibenzo[a,d]cyclohepten-5-ylidenemethyl)-phenyl]-acetamide]
